In the assay the target is T1, human metabotropic glutamate receptor 5 (hmGluR5) (Homo sapiens, UniProt P41594).
T1 construct: expressed in transfected cells
The experiment in a line: Calcium mobilization (FLIPR) assay for negative allosteric modulation, EC80 glutamate, hmGluR5 in HEK 293. Conditions: HEK293; hmGluR5, inhibition of EC80 glutamate response; read-out: FLIPR maximum inhibition. The class given is cell-based. The procedure, abridged: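 Stably transfected HEK 293 cells, Fluo-4-loaded, stimulated with EC80 glutamate plus test compound in HBSS/20 mM HEPES pH 7.4 with probenecid; FLIPR fluorescence read over 3 min at room temperature. Basal-subtracted maximum fluorescence change fitted by Hill equation; negative modulation seen as concentration-dependent inhibition of the EC80 response.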

T1 sequence (P41594 21-1212): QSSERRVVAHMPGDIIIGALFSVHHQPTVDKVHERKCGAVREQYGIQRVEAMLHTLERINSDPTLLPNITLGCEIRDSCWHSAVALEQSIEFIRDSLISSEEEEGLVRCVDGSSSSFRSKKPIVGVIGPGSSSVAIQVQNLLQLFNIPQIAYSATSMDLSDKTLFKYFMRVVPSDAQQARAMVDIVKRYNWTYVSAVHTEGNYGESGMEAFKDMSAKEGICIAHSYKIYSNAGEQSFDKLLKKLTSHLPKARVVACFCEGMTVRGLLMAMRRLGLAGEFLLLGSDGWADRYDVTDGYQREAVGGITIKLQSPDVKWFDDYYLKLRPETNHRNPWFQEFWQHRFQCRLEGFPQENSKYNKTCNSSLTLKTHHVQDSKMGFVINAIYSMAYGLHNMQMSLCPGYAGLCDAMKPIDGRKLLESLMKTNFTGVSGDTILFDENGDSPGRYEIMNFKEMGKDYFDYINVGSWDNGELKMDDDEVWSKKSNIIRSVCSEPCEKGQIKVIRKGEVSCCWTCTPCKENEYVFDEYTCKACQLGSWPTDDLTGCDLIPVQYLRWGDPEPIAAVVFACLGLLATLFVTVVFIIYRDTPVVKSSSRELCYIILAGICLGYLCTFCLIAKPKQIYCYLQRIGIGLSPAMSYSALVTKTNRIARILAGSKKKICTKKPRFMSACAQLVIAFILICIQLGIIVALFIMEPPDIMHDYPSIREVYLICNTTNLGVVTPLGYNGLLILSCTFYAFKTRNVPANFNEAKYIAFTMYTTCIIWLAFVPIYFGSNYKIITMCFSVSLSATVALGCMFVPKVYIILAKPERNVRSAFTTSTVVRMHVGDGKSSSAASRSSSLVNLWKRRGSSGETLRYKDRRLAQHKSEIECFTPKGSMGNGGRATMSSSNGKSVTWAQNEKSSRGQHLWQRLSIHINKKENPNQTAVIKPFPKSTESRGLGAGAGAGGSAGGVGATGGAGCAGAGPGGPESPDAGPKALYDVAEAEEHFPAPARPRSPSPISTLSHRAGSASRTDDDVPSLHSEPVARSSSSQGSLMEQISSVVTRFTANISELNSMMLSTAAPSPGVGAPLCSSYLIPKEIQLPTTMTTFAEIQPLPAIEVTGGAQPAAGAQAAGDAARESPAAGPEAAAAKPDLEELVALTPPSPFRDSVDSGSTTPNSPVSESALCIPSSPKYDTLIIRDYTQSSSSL

As to `N#Cc1cc(F)cc(N2CC[C@@]3(CCC[C@@H](NC(=O)c4cccc(F)c4)C3)C2=O)c1` (relative stereo) [Example 142, cis-N-[2-(3-Cyano-5-fluoro-phenyl)-1-oxo-2-aza-spiro[4.5]dec-7-yl]-3-fluoro-benzamide], the Emax is 47 to 93%.
As for `O=C(N[C@@H]1CCC[C@@]2(CCN(c3cc(F)cc(F)c3)C2=O)C1)c1nccs1` (relative stereo) [Example 143, cis-Thiazole-2-carboxylic acid [2-(3,5-difluoro-phenyl)-1-oxo-2-aza-spiro[4.5]dec-7-yl]-amide], the Emax was 47 to 93%.
To `Cc1nc(C(=O)N[C@@H]2CCC[C@@]3(CCN(c4cc(F)cc(F)c4)C3=O)C2)cs1` (relative stereo) [Example 144, cis-2-Methyl-thiazole-4-carboxylic acid [2-(3,5-difluoro-phenyl)-1-oxo-2-aza-spiro[4.5]dec-7-yl]-amide] belongs 47 to 93%; to `CCCCC(=O)N[C@@H]1CCC[C@@]2(CCN(c3cc(F)cc(F)c3)C2=O)C1` (relative stereo) [Example 145, cis-Pentanoic acid [2-(3,5-difluoro-phenyl)-1-oxo-2-aza-spiro[4.5]dec-7-yl]-amide], 47 to 93%.
Turning to `CCCC(=O)N[C@@H]1CCC[C@@]2(CCN(c3cc(F)cc(F)c3)C2=O)C1` (relative stereo) [Example 146, cis-N-[2-(3,5-Difluoro-phenyl)-1-oxo-2-aza-spiro[4.5]dec-7-yl]-butyramide], the Emax fell in the range of 47 to 93%.
On to `Cc1nccc(N2CC[C@]3(CCC[C@H](NC(=O)c4ccc(F)cn4)C3)C2=O)n1` (relative stereo) [Example 149], for which the Emax lay within 47 to 93%.
To `O=C(N[C@H]1CCC[C@]2(CCN(c3ccnc(C(F)(F)F)n3)C2=O)C1)c1cccc(F)c1` (relative stereo) [Example 150, cis-3-Fluoro-N-[1-oxo-2-(2-trifluoromethyl-pyrimidin-4-yl)-2-aza-spiro[4.5]dec-7-yl]-benzamide] belongs 47 to 93%; to `Cc1cc(N2CC[C@]3(CCC[C@H](NC(=O)c4cccc(F)c4)C3)C2=O)nc(C)n1` (relative stereo) [Example 151, cis-N-[2-(2,6-Dimethyl-pyrimidin-4-yl)-1-oxo-2-aza-spiro[4.5]dec-7-yl]-3-fluoro-benzamide], 47 to 93%.
To `Cc1cccc(C(=O)N[C@H]2CCC[C@]3(CCN(C)C3=O)C2)n1` (relative stereo) [Example 153] belongs 47 to 93%; to `CCN1CC[C@]2(CCC[C@H](NC(=O)c3cccc(C)n3)C2)C1=O` (relative stereo) [Example 154], 47 to 93%.
The result for `CCCN1CC[C@]2(CCC[C@H](NC(=O)c3cccc(C)n3)C2)C1=O` (relative stereo) [Example 155] reads 47 to 93%; that for `Cc1cccc(C(=O)N[C@@H]2CCC[C@@]3(CCN(c4cc(F)cc(F)c4)C3=O)C2)n1` (single isomer, unassigned) [Example 67], 73 to 95%; that for `Cc1cccc(C(=O)N[C@H]2CCC[C@]3(CCN(c4cc(F)cc(F)c4)C3=O)C2)n1` (single isomer, unassigned) [Example 81], 73 to 95%.
As for `O=C(N[C@@H]1CC(F)(F)C[C@@]2(CCN(c3cccc(F)c3)C2=O)C1)c1ccccn1` (single isomer, unassigned) [Example 98], the Emax lay within 88 to 93%.
To `O=C(N[C@H]1CC(F)(F)C[C@]2(CCN(c3cccc(F)c3)C2=O)C1)c1ccccn1` (single isomer, unassigned) [Example 99] belongs 88 to 93%; to `O=C1c2ccccc2CN1C1CCCC2(CCN(c3cccc(Cl)c3)C2=O)C1` (single isomer, unassigned) [Example 100, cis-2-[2-(3-chloro-phenyl)-1-oxo-2-aza-spiro[4.5]dec-7-yl]-2,3-dihydro-isoindol-1-one], 47 to 93%.
On to `O=C(N[C@H]1CC(F)(F)C[C@@]2(CCN(c3cccc(F)c3)C2=O)C1)c1ccccn1` (single isomer, unassigned) [Example 101], for which the Emax was 47 to 93%.

For the origin of these results see US9359297B2, “Spirolactam derivatives and uses of same” (H. Lundbeck A/S, priority 2009, dated 2016).
